Drawing on PubChem BioAssay AID792 (PCMD, 2007), this text covers IC50 for 27 molecules.

Molecules are shown by their SMILES. Inconclusive results are not listed. Active and inactive are the calls of the source. No rule for the calls is given here.

The assay addresses S. cerevisiae eIF2B mutant, luciferase reporter luminescence. Kind of assay: eIF2B reporter inhibitors in yeast strains, dose response, S. cerevisiae, mutant, wild-type, luminescence, growth (AID 792).
Where [1] appears, read: measured here: mutant yeast growth.

`CC(=C1C(=O)c2ccccc2C1=O)N1CCN(CCN=Cc2c(O)n(C)c(=O)n(C)c2=O)CC1`: the IC50 was > 100 µM (inactive). This molecule also displayed an IC50 under setting [1] above 100 µM.

For `CCOC(=O)CSc1nncc2ccc(OC)c(OC)c12`, the IC50 was > 100 µM (inactive). Under setting [1], the IC50 is above 100 µM.

As to `Cc1cccc(Cn2cnc3c(nnn3Cc3ccc(Cl)cc3)c2=O)c1`, the IC50 was > 100 µM (inactive). In addition, under setting [1], the half-maximal inhibitory concentration (IC50) was above 100 µM.

As to `CCOC(=O)c1cc(S(=O)(=O)N2CCN(C(=O)OCC)CC2)cn1C`, the IC50 is > 100 µM (inactive). Further, under setting [1], the concentration for half-maximal inhibition (IC50) was above 100 µM.

For `O=C(CCC1COc2ccccc2O1)Nc1ccc(Cl)cn1` (stereo not given), the IC50 was > 100 µM (inactive). This molecule also had an IC50 under setting [1] above 100 µM.

For `CCCCC(=O)Nc1ccc(N2CCN(S(C)(=O)=O)CC2)cc1`, the IC50 was > 100 µM (inactive). Besides, the half-maximal inhibitory concentration (IC50) under setting [1] is above 100 µM.

On to `Cc1cc(C)c(C#N)c(SCC(=O)Nc2nnc(-c3ccccc3)s2)n1`, for which the IC50 is > 100 µM (inactive). The IC50 under setting [1] is above 100 µM.

On to `CCCCN1C(=O)CN(CCc2ccccc2)C(=O)C1c1ccc(OC)cc1` (stereo not given), for which the IC50 is > 100 µM (inactive). In addition, the IC50 under setting [1] was above 100 µM.

For the molecule `C=CCN1CC(c2nc3ccccc3n2Cc2cccc3ccccc23)CC1=O` (stereo not given), the IC50 was > 100 µM (inactive). Also, under setting [1], the 50% inhibitory concentration (IC50) was above 100 µM.

In the case of `C=CCc1c(C)nc(C)nc1N/N=C/c1ccccc1O`, the IC50 was > 100 µM (inactive). In addition, the IC50 under setting [1] was above 100 µM.

On to `COc1ccc(N(C(=O)c2ccco2)S(=O)(=O)c2cccs2)cc1`, for which the IC50 was > 100 µM (inactive). Under setting [1], this molecule had an IC50 above 100 µM.

Regarding `C=CCn1c(N)cc(=O)nc1SCC(=O)Nc1ccccc1`, the IC50 was > 100 µM (inactive). Moreover, the half-maximal inhibitory concentration (IC50) under setting [1] is above 100 µM.

With `CN1C(=O)c2ccccc2Sc2ccc(C(=O)N3CCC4(CC3)OCCO4)cc21`, the IC50 was > 100 µM (inactive). For the same molecule, the IC50 under setting [1] was above 100 µM.

For `C=CCn1c(SCc2c(Cl)cccc2Cl)nnc1-c1cccnc1`, the IC50 was > 100 µM (inactive). Under setting [1], this molecule showed a 50% inhibitory concentration (IC50) above 100 µM.

As to `Cc1c(C(=O)N2CCCC2)sc(NC(=O)c2ccc(Cl)cc2)c1C#N`, the IC50 is > 100 µM (inactive). This molecule came in with a half-inhibitory concentration (IC50) under setting [1] above 100 µM.

In the case of `N#CCN1CCN(CC(=O)Nc2ccc(OCc3ccccc3)cc2)CC1`, the IC50 was > 100 µM (inactive). This molecule showed an IC50 under setting [1] above 100 µM.

On to `Cc1csc(NC(=O)c2cccn2C)n1`, for which the IC50 entry is “inactive”. Where the note is “S. cerevisiae wild-type, luminescence”, this molecule showed a half-inhibitory concentration (IC50) of 16.4 µM. Under setting [1], this molecule yielded an IC50 above 100 µM.

As to `COc1ccccc1-c1nnc2sc(COc3ccc(Cl)cc3)nn12`, the IC50 was > 100 µM (inactive). For the same molecule, the IC50 under setting [1] is above 100 µM.

On to `CCCCCOC(=O)Cn1c(SCC(=O)Nc2ccccc2)nc2c1c(=O)[nH]c(=O)n2C`, for which the IC50 is > 100 µM (inactive). Under setting [1], the 50% inhibitory concentration (IC50) was above 100 µM.

Turning to `CCOC(=O)CC(=O)CSc1nc(C)cc(-c2cccnc2)c1C#N`, the IC50 was > 100 µM (inactive). Under setting [1], the IC50 is above 100 µM.

On to `Cc1c(C(=O)N2CCN(c3ccccc3F)CC2)sc2nc(-c3ccccc3)cn12`, for which the IC50 was > 100 µM (inactive). The IC50 under setting [1] was above 100 µM.

Consider `CCCCCOC(=O)Nc1nnc(CCC)s1`, for which the IC50 is > 100 µM (inactive). For the same molecule, under setting [1], the half-inhibitory concentration (IC50) was above 100 µM.

For `CN1CCc2nc(SCCOc3ccccc3)c(C#N)cc2C1`, the IC50 was > 100 µM (inactive). Besides, the half-maximal inhibitory concentration (IC50) under setting [1] was above 100 µM.

Take `CCCCn1nnnc1SCC(=O)N1CCOCC1`: the IC50 was > 100 µM (inactive). Under setting [1], the 50% inhibitory concentration (IC50) was above 100 µM.

As to `C=CCc1c(C)nc(SC(C)C)[nH]c1=O`, the IC50 is > 100 µM (inactive). Under setting [1], this molecule registered an IC50 above 100 µM.

For `Oc1ccccc1-c1nnc(-c2ccc(C(F)(F)F)cc2)o1`, the IC50 is > 100 µM (inactive). Under setting [1], this molecule gave an IC50 above 100 µM.

For the molecule `CCCCOc1ccc(C2CC(=O)N(C)C2=O)cc1` (stereo not given), the IC50 is > 100 µM (inactive). The 50% inhibitory concentration (IC50) under setting [1] is above 100 µM.
